As a reminder, the IC50 is the point on the concentration scale where inhibition reaches its midpoint. High values mean weaker potency, low ones greater potency.

The nature of assay [1]: Inhibitory activity against 5-hydroxytryptamine 1D receptor in calf.
Assay in assay [2]: as above
The source holds these as a separate data set.

`COc1ccc2[nH]c(C)c(C3=CCNCC3)c2c1` [5-Methoxy-2-methyl-3-(1,2,3,6-tetrahydro-pyridin-4-yl)-1H-indole]: the IC50 in assay [1] was greater than 1 µM.
In assay [2], `CCc1[nH]c2ccc(OC)cc2c1CCN(C)C` [2-ethyl-5-methoxy-N,N-dimethyltryptamine] returned an IC50 of 1.4 µM.

Source of the values: BindingDB's records for doi:10.1016/j.bmcl.2005.06.067 (Carlsson Research, 2005).
